Reference: ChEMBL document CHEMBL1201862, “PubChem BioAssay data set” (2004)
Active and inactive are the calls of the source.

Assays:
[1] = target: Caspase-6 (Homo sapiens, UniProt P55212); assay: inhibition of CASP6 peptide cleavage – biochemical, VEID-R110 fluorescence, cherry-pick, dose response (AID 720632)
[2] = viability loss in THP-1 monocytes – THP-1 cells, cytotoxicity control for Vif-APOBEC3G degradation inhibitor project, dose response (AID 1117359); assay type: functional; details: THP-1
[3] = target: Genome polyprotein (dengue virus type 2, UniProt P29990); assay: flavivirus cap methylation enzyme inhibition – biochemical, confirmation dose response, primary screen (AID 588689); assay type: functional
[4] = target: T1, Protein Tat (Human immunodeficiency virus type 1 group M subtype B (isolate HXB2)(HIV-1), UniProt P04608); assay type: functional;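 note: tat binding to TAR RNA read out by fluorescence polarization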
T1 sequence (P04608 whole entry): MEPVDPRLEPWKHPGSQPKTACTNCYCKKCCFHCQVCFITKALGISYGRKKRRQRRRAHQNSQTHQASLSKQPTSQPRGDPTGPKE

[5] = HIV-1 Vif–A3G interaction blockers – biochemical, TR-FRET, GST-Vif 1-94, biotin-A3G peptide, dose response retest, primary screen (AID 1117319); assay type: functional;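 note: TR-FRET signal of purified GST-Vif binding a biotinylated A3G peptide; inhibitors lower the FRET signal by blocking Vif and A3G binding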
[6] = target: fMet-Leu-Phe receptor (Homo sapiens, UniProt P21462); assay: formyl peptide receptor binders – dose response (AID 519); assay type: functional
[7] = system: HEK293; assay: viability loss in HEK293T cells – cell-based, ATP luminescence, cherry-pick samples, cytotoxicity control, dose response (AID 687005); assay type: functional; details: Homo sapiens;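 note: cells exposed to compound for 48 hours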
[8] = HEK293 Cytotoxicity Assay Measured in Cell-Based System Using Plate Reader - 7071-01_Inhibitor_Dose_CherryPick_Activity_Set2.; assay type: functional
[9] = system: HeLa; assay: viability loss in HeLa cells – cell-based, ATP luminescence, cherry-pick samples, cytotoxicity control, dose response (AID 687004); assay type: functional; details: Homo sapiens
[10] = P. falciparum Dd2 growth inhibitors, dose response, SYBR Green, cherry-picked samples (AID 1159567); assay type: functional, cell-based
[11] = growth inhibition of PfATP4-mutant resistant parasites – NITD609-resistant line, SYBR Green, dry powder, dose response (AID 1159571); assay type: functional, cell-based;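 note: parasites synchronized at ring stage by sorbitol before testing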
[12] = toxicity to human hepatoma HepG2 cells – cell-based, cherry-picked samples, cytotoxicity control, dose response (AID 1159577); assay type: functional
[13] = Dd2 malaria parasite growth inhibition potency – SYBR Green, dry powder samples, dose response (AID 1159566); assay type: functional, cell-based;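 note: potency for growth inhibition with lower SYBR green DNA signal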
[14] = toxicity to human HepG2 hepatoma cells – cell-based, plate reader, dry powder samples, cytotoxicity control, dose response (AID 1159569); assay type: functional;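 note: inhibitor potency with signal falling toward the positive control level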
[15] = growth inhibition of yeast DHODH-expressing 3D7 parasites – SYBR Green, dry powder samples, dose response (AID 1159570); assay type: functional, cell-based;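 note: parasite growth measured after 72 hours of compound exposure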
[16] = target: T2, Heat shock factor protein 1 (Mus musculus, UniProt P38532); assay: enhancement of HSF1-driven luciferase signal – cell-based, NIH3T3, luminescence, dose retest, confirmation (AID 435004); assay type: functional;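 note: stress induced by proteasome inhibitor MG132 added 30 min after compound; luciferase reporter driven by HSF1 response element in NIH3T3 cells; actives raise luminescence as potentiators of the MG132 stress response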
T2 sequence (P38532 whole entry): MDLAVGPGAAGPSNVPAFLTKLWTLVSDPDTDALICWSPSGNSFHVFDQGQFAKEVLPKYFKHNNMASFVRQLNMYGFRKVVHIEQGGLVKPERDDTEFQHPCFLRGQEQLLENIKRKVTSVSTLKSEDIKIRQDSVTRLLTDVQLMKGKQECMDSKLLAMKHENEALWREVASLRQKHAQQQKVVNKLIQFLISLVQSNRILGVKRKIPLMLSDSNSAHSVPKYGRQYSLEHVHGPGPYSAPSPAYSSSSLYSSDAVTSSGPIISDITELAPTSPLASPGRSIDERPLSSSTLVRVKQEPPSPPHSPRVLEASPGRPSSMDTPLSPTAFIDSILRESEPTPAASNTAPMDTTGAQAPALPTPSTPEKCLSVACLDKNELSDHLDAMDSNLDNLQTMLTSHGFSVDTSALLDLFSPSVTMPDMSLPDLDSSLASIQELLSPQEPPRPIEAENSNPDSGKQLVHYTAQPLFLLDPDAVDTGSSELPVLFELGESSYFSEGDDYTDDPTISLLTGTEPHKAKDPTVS

[17] = target: Endoplasmic reticulum aminopeptidase 1 (Homo sapiens, UniProt Q9NZ08); assay: inhibition of human ERAP1 enzyme activity – biochemical, cherry-pick, set 2, plate reader, dose response (AID 743314)
[18] = luciferase reporter signal suppression in cells – H4 neuroglioma cells, luminescence, dose response (AID 1990); assay type: functional, cell-based
[19] = blockers of bursicon-stimulated LGR2 cAMP reporter – cell-based, HEK293, CRE-luciferase reporter, cherry pick, set 2, dose response (AID 743343); assay type: functional;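 note: transfected cells were stimulated with diluted bursicon conditioned medium after compound addition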
[20] = blockade of melanocortin 4 receptor signaling – cell-based, plate reader, cherry pick, counter-screen for LGR2 antagonist project, dose response (AID 743444); assay type: functional;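 note: transfected HEK 293 cells stimulated with alpha-MSH peptide; potency of inhibitors of the alpha-MSH evoked signal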
[21] = A549 cell cytotoxicity, dose response, cytotoxicity control, plate reader, cherry-pick, antagonist series (AID 743412); assay type: functional, cell-based
[22] = alpha-synuclein stem-loop luciferase translation blockers – H4 neuroglioma cells, luminescence, confirmation (AID 1988); assay type: functional, cell-based
[23] = Luminescence Cell-Based Dose Response HTS to Identify Inhibitors of 5'UTR Stem-Loop Driven Prion Protein mRNA Translation in H4 Neuroglioblastoma Cells. [Related pubchem assays: 1827 (Project Summary), 1813 (Primary HTS)]; assay type: functional
[24] = cells; assay type: functional, cell-based
[25] = target: T2, Heat shock factor protein 1; assay: decrease of HSF1-responsive luciferase luminescence – cell-based, NIH3T3, dose retest, confirmation (AID 2382); assay type: functional;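 note: NIH3T3 fibroblasts with HSF1-driven luciferase reporter stressed by proteasome inhibitor MG132; luminescence from HSF1-driven luciferase expression after 8 hours of MG132 stress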
[26] = target: T3, Nuclear receptor subfamily 0 group B member 1 (Homo sapiens, UniProt P51843); assay type: functional, cell-based;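 note: HEK293T cells transfected with SF-1 and DAX-1 plus StAR promoter luciferase reporter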
T3 sequence (P51843 whole entry): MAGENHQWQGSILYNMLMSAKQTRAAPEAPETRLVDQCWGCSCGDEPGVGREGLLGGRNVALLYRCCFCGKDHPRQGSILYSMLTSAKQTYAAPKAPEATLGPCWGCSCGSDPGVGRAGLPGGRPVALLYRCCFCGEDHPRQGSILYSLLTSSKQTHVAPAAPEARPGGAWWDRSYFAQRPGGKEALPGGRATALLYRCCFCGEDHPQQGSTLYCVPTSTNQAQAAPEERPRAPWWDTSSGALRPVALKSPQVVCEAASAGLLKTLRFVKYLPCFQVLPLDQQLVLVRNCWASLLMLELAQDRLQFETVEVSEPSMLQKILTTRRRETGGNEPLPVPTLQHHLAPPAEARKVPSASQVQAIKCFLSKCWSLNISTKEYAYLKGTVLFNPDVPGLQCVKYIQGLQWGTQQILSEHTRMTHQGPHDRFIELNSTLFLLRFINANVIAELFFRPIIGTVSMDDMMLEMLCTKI

[27] = viability loss in HEK293 cells – cell-based, plate reader, cherry-picked samples, cytotoxicity control, dose response (AID 743446); assay type: functional
[28] = toxicity toward HepG2 liver cells – cell-based, plate reader, cherry-pick, antagonist series, cytotoxicity control, dose response (AID 743416); assay type: functional
[29] = system: Vero; assay: mammalian cell viability reduction – secondary assay, cytotoxicity control for West Nile virus antiviral project, dose response (AID 1650); assay type: functional; details: Chlorocebus sabaeus
[30] = target: Transthyretin (Homo sapiens, UniProt P02766); assay: Luminescence-based cell-based high throughput dose response assay to identify activators of Transthyretin (TTR) transcription.; assay type: functional
[31] = Luminescence-based cell-based high throughput dose response assay to identify activators of the DAF-12 from the parasite S. stercoralis (ssDAF-12).; assay type: functional
[32] = target: T4, Oxysterols receptor LXR-beta (Homo sapiens, UniProt P55055); assay type: functional, cell-based;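 note: agonist activity at LXR measured by a cell-based luminescence readout across a dose range, run as a counterscreen for daf-12 agonists; potency for activation of Gal4-LXR reporter so compounds are agonists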
T4 sequence (P55055 whole entry): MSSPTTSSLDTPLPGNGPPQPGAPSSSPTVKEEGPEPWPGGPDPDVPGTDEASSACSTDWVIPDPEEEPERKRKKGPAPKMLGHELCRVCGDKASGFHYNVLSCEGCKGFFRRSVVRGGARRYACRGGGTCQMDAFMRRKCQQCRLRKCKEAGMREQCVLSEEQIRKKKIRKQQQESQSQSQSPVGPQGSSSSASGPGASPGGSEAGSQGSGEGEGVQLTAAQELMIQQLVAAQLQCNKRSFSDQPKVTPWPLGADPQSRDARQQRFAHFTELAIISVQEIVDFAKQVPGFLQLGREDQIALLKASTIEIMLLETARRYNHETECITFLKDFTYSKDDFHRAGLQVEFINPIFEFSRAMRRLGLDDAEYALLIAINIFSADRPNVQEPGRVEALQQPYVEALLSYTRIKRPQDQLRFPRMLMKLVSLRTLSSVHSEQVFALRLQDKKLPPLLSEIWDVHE

[33] = target: T4, Oxysterols receptor LXR-beta; assay: LXR agonists, Gal4 luciferase reporter, dose response, counter-screen for ssDAF-12 agonist project, cell-based, luminescence, HEK293, S. stercoralis campaign (AID 720737); assay type: functional; details: read-out: IC50 (the source's name)
[34] = NIH3T3 cell viability loss – ATP luminescence, mouse fibroblasts, counter-screen, dose response (AID 2010); assay type: functional, cell-based;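 note: cells exposed to compound for about 90 hours before reading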
[35] = reduced cellular PGC1a acetyl-lysine signal – cell-based, cherry-picked samples, dose response (AID 720514); assay type: functional;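 note: potency may reflect raised or lowered acetylation signal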
[36] = DRD fibroblast viability loss – cell-based, non-viral oncogenic, luminescence, dose response (AID 1934); assay type: functional; details: Homo sapiens
[37] = system: BJ; assay: cells; assay type: functional, cell-based; details: Homo sapiens
[38] = system: BJ; assay: BJ-TERT fibroblast viability loss – cell-based, RAS-independent, luminescence, dose response (AID 1933); assay type: functional; details: Homo sapiens
[39] = Trypanosoma cruzi growth suppression in host cells – NIH3T3 host cells, beta-gal luminescence, confirmation (AID 2044); assay type: functional, cell-based;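 note: intracellular parasites grown in NIH/3T3 mouse fibroblasts as host cells; luminescent beta-galactosidase reporter signal from transgenic T. cruzi replicating inside host cells; inhibitors lower the luminescence signal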

Sequence of Genome polyprotein (P29990 2492-3391 limits assumed): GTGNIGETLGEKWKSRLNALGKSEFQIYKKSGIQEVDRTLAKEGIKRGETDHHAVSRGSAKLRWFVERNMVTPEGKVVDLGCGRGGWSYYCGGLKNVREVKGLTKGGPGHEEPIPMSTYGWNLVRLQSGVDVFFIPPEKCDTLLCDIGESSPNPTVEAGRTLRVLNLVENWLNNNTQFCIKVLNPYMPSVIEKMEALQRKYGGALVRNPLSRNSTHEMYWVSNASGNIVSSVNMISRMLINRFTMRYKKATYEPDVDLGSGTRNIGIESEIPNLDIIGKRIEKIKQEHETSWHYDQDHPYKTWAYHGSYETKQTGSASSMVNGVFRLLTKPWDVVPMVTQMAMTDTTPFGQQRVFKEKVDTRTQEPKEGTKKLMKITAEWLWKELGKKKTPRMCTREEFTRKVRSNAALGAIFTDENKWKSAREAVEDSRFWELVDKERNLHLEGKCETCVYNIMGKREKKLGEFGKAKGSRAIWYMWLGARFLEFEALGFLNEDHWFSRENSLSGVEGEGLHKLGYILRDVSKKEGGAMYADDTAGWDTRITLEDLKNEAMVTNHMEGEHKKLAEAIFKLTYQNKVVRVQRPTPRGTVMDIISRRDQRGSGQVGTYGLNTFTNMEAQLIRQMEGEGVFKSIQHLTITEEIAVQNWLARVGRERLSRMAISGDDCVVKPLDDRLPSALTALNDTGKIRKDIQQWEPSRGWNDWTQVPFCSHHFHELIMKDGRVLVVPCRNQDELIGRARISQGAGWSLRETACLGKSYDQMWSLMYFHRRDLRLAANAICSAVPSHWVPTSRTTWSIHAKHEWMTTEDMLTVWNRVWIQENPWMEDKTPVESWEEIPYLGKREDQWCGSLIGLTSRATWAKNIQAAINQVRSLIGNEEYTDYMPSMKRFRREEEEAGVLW
Sequence of Caspase-6 (P55212 24-179 limits assumed): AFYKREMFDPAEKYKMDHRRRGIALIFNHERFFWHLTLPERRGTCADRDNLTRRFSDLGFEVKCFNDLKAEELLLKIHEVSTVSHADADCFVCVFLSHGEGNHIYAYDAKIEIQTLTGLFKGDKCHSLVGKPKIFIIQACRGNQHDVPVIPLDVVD
Sequence of Caspase-6 (P55212 194-293 limits assumed): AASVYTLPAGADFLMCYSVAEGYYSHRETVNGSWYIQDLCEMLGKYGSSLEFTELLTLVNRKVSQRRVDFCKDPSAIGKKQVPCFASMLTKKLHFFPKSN
Sequence of Endoplasmic reticulum aminopeptidase 1 (Q9NZ08 whole entry): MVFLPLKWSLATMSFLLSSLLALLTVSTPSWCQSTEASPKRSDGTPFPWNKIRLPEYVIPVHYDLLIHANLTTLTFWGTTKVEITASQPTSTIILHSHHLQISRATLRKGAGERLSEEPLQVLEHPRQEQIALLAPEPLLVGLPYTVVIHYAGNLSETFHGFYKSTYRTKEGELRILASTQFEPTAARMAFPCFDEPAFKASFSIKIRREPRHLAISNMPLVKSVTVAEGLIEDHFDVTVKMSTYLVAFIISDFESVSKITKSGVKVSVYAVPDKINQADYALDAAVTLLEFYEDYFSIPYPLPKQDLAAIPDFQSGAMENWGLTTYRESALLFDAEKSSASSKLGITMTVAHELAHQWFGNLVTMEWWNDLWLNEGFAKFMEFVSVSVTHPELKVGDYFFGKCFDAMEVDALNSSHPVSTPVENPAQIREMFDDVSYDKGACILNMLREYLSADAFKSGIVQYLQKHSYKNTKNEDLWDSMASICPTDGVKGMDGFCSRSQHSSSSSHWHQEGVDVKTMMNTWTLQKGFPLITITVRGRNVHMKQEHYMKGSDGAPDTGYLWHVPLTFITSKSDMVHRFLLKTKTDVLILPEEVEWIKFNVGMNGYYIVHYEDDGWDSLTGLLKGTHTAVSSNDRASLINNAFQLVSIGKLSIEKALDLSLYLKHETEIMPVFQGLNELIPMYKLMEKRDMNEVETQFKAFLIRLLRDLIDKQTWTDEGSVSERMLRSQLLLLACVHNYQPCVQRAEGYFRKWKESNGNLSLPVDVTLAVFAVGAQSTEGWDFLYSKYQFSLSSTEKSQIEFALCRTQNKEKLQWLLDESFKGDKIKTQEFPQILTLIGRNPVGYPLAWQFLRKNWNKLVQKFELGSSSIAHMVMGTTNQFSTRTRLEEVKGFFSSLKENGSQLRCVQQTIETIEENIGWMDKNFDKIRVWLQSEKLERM
Sequence of fMet-Leu-Phe receptor (P21462 whole entry): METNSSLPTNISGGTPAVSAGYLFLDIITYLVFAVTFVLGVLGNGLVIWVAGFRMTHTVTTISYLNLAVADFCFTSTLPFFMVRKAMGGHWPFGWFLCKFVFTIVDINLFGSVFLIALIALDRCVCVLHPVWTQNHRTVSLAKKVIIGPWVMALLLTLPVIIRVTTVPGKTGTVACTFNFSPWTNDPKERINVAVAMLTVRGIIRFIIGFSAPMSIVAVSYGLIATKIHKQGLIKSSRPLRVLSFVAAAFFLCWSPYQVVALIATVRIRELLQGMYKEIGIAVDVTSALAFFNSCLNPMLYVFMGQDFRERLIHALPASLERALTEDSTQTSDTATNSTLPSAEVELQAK

With `O=C(c1ccccc1NS(=O)(=O)c1ccc([N+](=O)[O-])cc1[N+](=O)[O-])N1O[C@@H]2C=C[C@H]1C2` the AC50 [1] was 9.9 µM (active), the CC50 [2] was 36.7 µM (active) and the IC50 [3] was 45.4 µM (active). For the same compound, the IC50 [4] was > 100 µM (active) and the IC50 [5] was > 100 µM (active).

With `CCc1ccccc1NC(=O)C(C#N)Cc1cccnc1` (centres undefined) the Ki [6] was 31.7 µM (inactive).

For `C[C@@H]1CN([C@H](C)CO)S(=O)(=O)c2ccc(C#CC3CC3)cc2O[C@H]1CN(C)CC1CCOCC1`, the AC50 [7] was 15.4 µM (active), the AC50 [8] was 15.4 µM (active) and the AC50 [9] was > 52 µM (inactive).

For `C/C=C/c1ccc([C@@H]2[C@@H]3CN(Cc4cccnc4)C[C@H]2N3)cc1`, the AC50 [10] was 1.41 µM (active), the AC50 [11] was 1.83 µM (active) and the AC50 [12] was > 39 µM (inactive). For the same compound, the AC50 [13] was 1.27 µM (active), the AC50 [14] was 24.2 µM (active) and the AC50 [15] was 1.41 µM (active).

With `O=c1oc2cc(O)ccc2cc1S(=O)(=O)c1ccccc1` the EC50 [16] was > 260 µM (inactive) and the AC50 [17] was 1.44 µM (active).

In the case of `CC(=O)c1ccc(NC(=O)c2cnn3ccccc23)cc1`, the EC50 [18] was 2.12 µM (active), the AC50 [19] was 9.16 µM (active) and the AC50 [20] was 11.7 µM (active). The AC50 [21] was 50.1 µM (active), the EC50 [22] was 1.68 µM (active) and the EC50 [23] was 1.43 µM (active). For the same compound, the IC50 [24] was > 67.5 µM (inactive), the EC50 [25] was 14.3 µM (active) and the IC50 [26] was > 67.5 µM (inactive). The AC50 [27] was > 52 µM (inactive) and the AC50 [28] was > 52 µM (inactive).

In the case of `CCOc1ccc(/C=C2\SC(=S)N(CCC(=O)N(CCO)c3ccccc3)C2=O)cc1`, the CC50 [29] was 33.5 µM (active).

With `CN1C(=O)C(=Cc2[nH]c3ccccc3c2CCNC(=S)NC2CC2)C(=O)N(C)C1=O` the EC50 [30] was > 167 µM (inactive).

In the case of `Clc1ccc(-c2cn3cc(Cl)ccc3n2)cc1`, the IC50 [31] was > 67.6 µM (inactive), the EC50 [32] was > 67.6 µM (inactive) and the EC50 [33] was > 67.6 µM (inactive).

In the case of `N#CC1=C(N)Oc2c(ccc3ccccc23)C1c1ccsc1` (centres undefined), the EC50 [34] was 0.253 µM (active), the AC50 [35] was 17.7 µM (active) and the EC50 [36] was 0.221 µM (active). The EC50 [37] was 0.254 µM (active), the EC50 [38] was 0.182 µM (inconclusive) and the EC50 [39] was 2.63 µM (active).
